Measured values as given in patent publication US20190151329A1, “THERAPEUTIC USE OF DIAMINOPHENOTHIAZINES” (WisTa Laboratories Ltd., priority 2007, published 2019).
Values joined by “and” are separate entries in the source; they are usually repeats but may differ in a detail not shown here. Identical values can stand only once. Like-named read-outs stand apart in the source and are kept apart here.

Assays:
[1] = Pig single oral dose pharmacokinetic study (blood and brain); type: in vivo, pigs; details: single oral 20 mg/kg
Protocol: Finally, a comparison was made between the compartment predictions and the results from an oral study in which pigs were administered a single 20 mg/kg dose, and brain levels of MT were determined. […] Blood (0.5, 1, 2, 4, 8, 12, 24 and 48 h) and urine (1, 2, 3, 4, 5, 6, 7, 8, 12, and 24 h) were collected at regular timepoints up to 48 hrs. Two animals were sacrificed at each of 1, 8, 24 and 48 h post dose and brain samples retained. Pharmacokinetic evaluation of the free base of MTC was performed on whole blood and brain tissue samples. Two batches of brain tissue sample were extracted for each animal and analysed essentially as described by Peter et al (2000).
Brain tissue (500 mg) was vortexed and then extracted with dichloroethane (5 ml) and the organic phase taken to dryness under nitrogen. The extract was taken up with methanol and separated by reverse-phase HPLC with ultraviolet detection.

[2] = cited from earlier work; for L-MT urinary excretion rate / Ox-MT urinary excretion rate: 10 mg MTC oral
[3] = cited from earlier work; for Blood Ox-MT concentration: human whole blood
[4] = rats; IV; within 2 minutes; cited from earlier work
[5] = cited from earlier work
[6] = human, time 0.5 hr (mid-time 0.25 hr)
[7] = human, time 1 hr (mid-time 0.75 hr)
[8] = human, time 2 hr (mid-time 1.5 hr)
[9] = human, time 3 hr (mid-time 2.5 hr)
[10] = human, time 4 hr (mid-time 3.5 hr)
[11] = human, time 6 hr (mid-time 5 hr)
[12] = human, time 9 hr (mid-time 7.5 hr)
[13] = human, time 24 hr (mid-time 16.5 hr)
[14] = human, time 33 hr (mid-time 28.5 hr)
[15] = human, time 48 hr (mid-time 40.5 hr)
[16] = human, time 57 hr (mid-time 52.5 hr)
[17] = human, time 72 hr (mid-time 64.5 hr)
[18] = human, time 81 hr (mid-time 76.5 hr)
[19] = human, time 96 hr (mid-time 88.5 hr)
[20] = human, time 105 hr (mid-time 100.5 hr)
[21] = human, time 120 hr (mid-time 112.5 hr)
[22] = human, 10 mg oral, non-compartmental secondary parameter
[23] = human, 10 mg oral, urinary excretion data
[24] = repeat dose 15 mg/24 hr, day 14
[25] = repeat dose 15 mg/24 hr, day 21
[26] = repeat dose 300 mg/24 hr, day 7
[27] = repeat dose 300 mg/24 hr, day 14
[28] = repeat dose 300 mg/24 hr, day 21

half-life ([1]; brain, read-out: terminal elimination half-life, brain (converted)): 23.5 h
half-life ([1]; whole blood, read-out: terminal elimination half-life, blood (converted)): 23.5 h
SMILES: CN(C)c1ccc2nc3ccc(=[N+](C)C)cc-3sc2c1 [MTC, methylthioninium chloride]
terminal elimination half-life deduced by DiSanto and Wagner ([2]; from urinary excretion data): 15 to 16.5 h
L-MT urinary excretion rate [2, 6]: 14.01 µg/h
Ox-MT urinary excretion rate [2, 6]: 2.31 µg/h
L-MT urinary excretion rate [2, 7]: 385.06 µg/h
Ox-MT urinary excretion rate [2, 7]: 20.59 µg/h
L-MT urinary excretion rate [2, 8]: 659.14 µg/h
Ox-MT urinary excretion rate [2, 8]: 38.66 µg/h
L-MT urinary excretion rate [2, 9]: 474.29 µg/h
Ox-MT urinary excretion rate [2, 9]: 50.56 µg/h
L-MT urinary excretion rate [2, 10]: 384.43 µg/h
Ox-MT urinary excretion rate [2, 10]: 40.66 µg/h
L-MT urinary excretion rate [2, 11]: 290.50 µg/h
Ox-MT urinary excretion rate [2, 11]: 53.01 µg/h
L-MT urinary excretion rate [2, 12]: 120.29 µg/h
Ox-MT urinary excretion rate [2, 12]: 42.86 µg/h
L-MT urinary excretion rate [2, 13]: 78.72 µg/h
Ox-MT urinary excretion rate [2, 13]: 37.99 µg/h
L-MT urinary excretion rate [2, 14]: 41.87 µg/h
Ox-MT urinary excretion rate [2, 14]: 24.34 µg/h
L-MT urinary excretion rate [2, 15]: 26.77 µg/h
Ox-MT urinary excretion rate [2, 15]: 11.02 µg/h
L-MT urinary excretion rate [2, 16]: 14.11 µg/h
Ox-MT urinary excretion rate [2, 16]: 5.00 µg/h
L-MT urinary excretion rate [2, 17]: 7.88 µg/h
Ox-MT urinary excretion rate [2, 17]: 4.98 µg/h
L-MT urinary excretion rate [2, 18]: 6.39 µg/h
Ox-MT urinary excretion rate [2, 18]: 2.53 µg/h
L-MT urinary excretion rate [2, 19]: 3.09 µg/h
Ox-MT urinary excretion rate [2, 19]: 1.74 µg/h
L-MT urinary excretion rate [2, 20]: 3.02 µg/h
Ox-MT urinary excretion rate [2, 20]: 1.23 µg/h
L-MT urinary excretion rate [2, 21]: 1.91 µg/h
Ox-MT urinary excretion rate [2, 21]: 0.88 µg/h
MRT, Free (Ox-MTC) ([2]; human, 10 mg oral): 24.5000 h
MRT, Leuco (L-MT) ([2]; human, 10 mg oral): 16.8774 h
T½ (distribution), Free (Ox-MTC) ([2]; human, 10 mg oral): 0.5930 h
T½ (distribution), Leuco (L-MT) ([2]; human, 10 mg oral): 1.1530 h
T½ (elimination), Free (Ox-MTC) ([2]; human, 10 mg oral): 15.0364 h
T½ (elimination), Leuco (L-MT) ([2]; human, 10 mg oral): 16.4953 h
Urinary excretion (% of total), Free (Ox-MT) ([2]; human, 10 mg oral): 23% and 22.94%
Urinary excretion (% of total), Leuco (L-MT) ([2]; human, 10 mg oral): 77% and 77.06%
total urinary recovery ([2]; human, 10 mg oral): 65 % of dose
AUC, Leuco (L-MT) [2, 22]: 4981.55 µg·h
CI, Free (Ox-MTC) [2, 22]: 6.7420 L/h
CI, Leuco (L-MT) [2, 22]: 2.0074 L/h
F (calculated bioavailability), Free (Ox-MTC) [2, 22]: 0.1483
F (calculated bioavailability), Leuco (L-MT) [2, 22]: 0.4982
Vc, Free (Ox-MTC) [2, 22]: 4.4188 L
Vc, Leuco (L-MT) [2, 22]: 4.1152 L
K12, Free (Ox-MTC) [2, 23]: 0.7506
K12, Leuco (L-MT) [2, 23]: 0.2962
K21, Free (Ox-MTC) [2, 23]: 0.2381
Kel (terminal elimination rate constant), Free (Ox-MTC) [2, 23]: 0.2263
Kel (terminal elimination rate constant), Leuco (L-MT) [2, 23]: 0.2430
Tlag, Free (Ox-MTC) [2, 23]: 0.2078 h
Tlag, Leuco (L-MT) [2, 23]: 0.2381 h
VcF (Vc × F), Leuco (L-MT) [2, 23]: 8.2607 L
terminal elimination half-life (Ox-MT and L-MT comparable) [2, 23]: ~16 h
corrected apparent central volume (Ox-MT and L-MT comparable) ([2]; in vivo, po): 4 L
terminal elimination half-life deduced by Peter et al. ([3]; from analysis of blood concentration data): 5.5 to 6.3 h
Blood Ox-MT concentration ([3]; 100 mg MTC IV, 0.09 hr): 6.06 µmol/L
Blood Ox-MT concentration ([3]; 100 mg MTC IV, 0.15 hr): 3.32 µmol/L
Blood Ox-MT concentration ([3]; 100 mg MTC IV, 0.24 hr): 1.73 µmol/L
Blood Ox-MT concentration ([3]; 100 mg MTC IV, 0.33 hr): 1.65 µmol/L
Blood Ox-MT concentration ([3]; 100 mg MTC IV, 0.5 hr): 0.78 µmol/L
Blood Ox-MT concentration ([3]; 100 mg MTC IV, 0.65 hr): 0.61 µmol/L
Blood Ox-MT concentration ([3]; 100 mg MTC IV, 0.83 hr): 0.39 µmol/L
Blood Ox-MT concentration ([3]; 100 mg MTC IV, 1.01 hr): 0.41 µmol/L
Blood Ox-MT concentration ([3]; 100 mg MTC IV, 1.99 hr): 0.26 µmol/L
Blood Ox-MT concentration ([3]; 100 mg MTC IV, 4 hr): 0.18 µmol/L
Blood Ox-MT concentration ([3]; 100 mg MTC oral (mean of with and without Mesna), 0 hr): 0 µmol/L
Blood Ox-MT concentration ([3]; 100 mg MTC oral (mean of with and without Mesna), 0.09 hr): 0.00064 µmol/L
Blood Ox-MT concentration ([3]; 100 mg MTC oral (mean of with and without Mesna), 0.15 hr): 0.0011 µmol/L
Blood Ox-MT concentration ([3]; 100 mg MTC oral (mean of with and without Mesna), 0.24 hr): 0.0064 µmol/L
Blood Ox-MT concentration ([3]; 100 mg MTC oral (mean of with and without Mesna), 0.33 hr): 0.017 µmol/L
Blood Ox-MT concentration ([3]; 100 mg MTC oral (mean of with and without Mesna), 0.5 hr): 0.041 µmol/L
Blood Ox-MT concentration ([3]; 100 mg MTC oral (mean of with and without Mesna), 0.83 hr): 0.055 µmol/L
Blood Ox-MT concentration ([3]; 100 mg MTC oral (mean of with and without Mesna), 1.01 hr): 0.064 µmol/L
Blood Ox-MT concentration ([3]; 100 mg MTC oral (mean of with and without Mesna), 1.99 hr): 0.069 µmol/L
Blood Ox-MT concentration ([3]; 100 mg MTC oral (mean of with and without Mesna), 4 hr): 0.038 µmol/L
% of dose excreted in urine at 24 hr ([3]; human, 100 mg MTC, IV): 28.6 % of dose
AUC ([3]; human, 100 mg MTC, IV): 0.134 µmol/min/mL
Cl (clearance) ([3]; human, 100 mg MTC, IV): 3 L/h
Estimated elimination T½: blood (1-4 hr) ([3]; human, 100 mg MTC, IV): 5.25 h
% of dose excreted in urine at 24 hr ([3]; human, 100 mg MTC, Oral): 18.6 % of dose
AUC ([3]; human, 100 mg MTC, Oral): 0.011 µmol/min/mL
Estimated elimination T½: urine (4-24 hr) ([3]; human, 100 mg MTC, Oral): 6.6 h
fraction of total MT excreted in the urine in the L-MB form ([3]; human, did not differ between oral and IV dosing): approximately ⅓
dose recovered from the major organs [4]: approximately 25%
24 hr urinary excretion, L-MT (summary line) ([5]; repeat dose 15 mg/24 hr): 7.2 mg
24 hr urinary excretion, Ox-MT (summary line) ([5]; repeat dose 15 mg/24 hr): 5.8 mg
% of total urinary excretion, L-MT ([5]; repeat dose 15 mg/24 hr): 55.3%
% of total urinary excretion, Ox-MT ([5]; repeat dose 15 mg/24 hr): 44.8%
F (apparent bioavailability), L-MT ([5]; repeat dose 15 mg/24 hr): 0.48
F (apparent bioavailability), Ox-MT ([5]; repeat dose 15 mg/24 hr): 0.39
24-hr urinary excretion, L-MT ([5]; repeat dose 15 mg/24 hr, day 7): 7.2 mg
24-hr urinary excretion, Ox-MT ([5]; repeat dose 15 mg/24 hr, day 7): 6.1 mg
24-hr urinary excretion, L-MT [5, 24]: 8 mg
24-hr urinary excretion, Ox-MT [5, 24]: 5.3 mg
24-hr urinary excretion, L-MT [5, 25]: 6.4 mg
24-hr urinary excretion, Ox-MT [5, 25]: 6.1 mg
24 hr urinary excretion, L-MT (summary line) ([5]; repeat dose 300 mg/24 hr): 69.2 mg
24 hr urinary excretion, Ox-MT (summary line) ([5]; repeat dose 300 mg/24 hr): 43.4 mg
% of total urinary excretion, L-MT ([5]; repeat dose 300 mg/24 hr): 61.5%
% of total urinary excretion, Ox-MT ([5]; repeat dose 300 mg/24 hr): 38.6%
F (apparent bioavailability), L-MT ([5]; repeat dose 300 mg/24 hr): 0.23
F (apparent bioavailability), Ox-MT ([5]; repeat dose 300 mg/24 hr): 0.14
24-hr urinary excretion, L-MT [5, 26]: 75.6 mg
24-hr urinary excretion, Ox-MT [5, 26]: 43.9 mg
24-hr urinary excretion, L-MT [5, 27]: 71.6 mg
24-hr urinary excretion, Ox-MT [5, 27]: 41.1 mg
24-hr urinary excretion, L-MT [5, 28]: 60.4 mg
24-hr urinary excretion, Ox-MT [5, 28]: 45.2 mg
% of total urinary excretion, L-MT ([5]; single dose 25 mg): 15.8%
% of total urinary excretion, Ox-MT ([5]; single dose 25 mg): 84.2%
F (apparent bioavailability), L-MT ([5]; single dose 25 mg): 0.11
F (apparent bioavailability), Ox-MT ([5]; single dose 25 mg): 0.60
F (apparent bioavailability), Total-MT ([5]; single dose 25 mg): 0.71
urinary excretion, L-MT ([5]; single dose 25 mg): 2.8 mg
urinary excretion, Ox-MT ([5]; single dose 25 mg): 14.9 mg
urinary excretion, Total-MT ([5]; single dose 25 mg): 17.7 mg
% of total urinary excretion, L-MT ([5]; single dose 50 mg): 8.8%
% of total urinary excretion, Ox-MT ([5]; single dose 50 mg): 91.2%
F (apparent bioavailability), L-MT ([5]; single dose 50 mg): 0.054
F (apparent bioavailability), Ox-MT ([5]; single dose 50 mg): 0.56
F (apparent bioavailability), Total-MT ([5]; single dose 50 mg): 0.62
urinary excretion, L-MT ([5]; single dose 50 mg): 2.7 mg
urinary excretion, Ox-MT ([5]; single dose 50 mg): 28.1 mg
urinary excretion, Total-MT ([5]; single dose 50 mg): 30.8 mg
% of total urinary excretion, L-MT ([5]; single dose 100 mg): 15.2%
% of total urinary excretion, Ox-MT ([5]; single dose 100 mg): 84.8%
F (apparent bioavailability), L-MT ([5]; single dose 100 mg): 0.060
F (apparent bioavailability), Ox-MT ([5]; single dose 100 mg): 0.34
F (apparent bioavailability), Total-MT ([5]; single dose 100 mg): 0.40
urinary excretion, L-MT ([5]; single dose 100 mg): 6 mg
urinary excretion, Ox-MT ([5]; single dose 100 mg): 33.5 mg
urinary excretion, Total-MT ([5]; single dose 100 mg): 39.5 mg
